Data as given in US20020155503A1 (priority 1997, published 2002).

Target: protein tyrosine kinase v-Abl (Abelson murine leukemia virus, UniProt P00521)
Conditions: Library Sub-Set 4 (X-Tyr-X-X-X)
Description: In the fourth application of this invention, a recombinant form of the Abelson murine leukaemia virus protein tyrosine kinase v-Abl was used in an in vitro phosphorylation reaction to phosphorylate the library sub-set 4 which scans the sequence −1 to +3 around a zero position tyrosine residue, as previously performed for the ZAP-70 library. Detection of phosphoryrosine was achieved using anti-phosphotyrosine antibody detection in an ELISA assay using tetramethylbenzidine substrate and recording absorbance at 450 nm. […] Deconvolution of the hit peptides was performed as described in WO 97/42216.
Library peptides were phosphorylated in pools of 20 peptides at a final concentration of 1 μM total peptide in 50 mM HEPES, pH 7.5, 0.1% Triton X-100, 100 μM ATP, 10 mM MnCl2, 1 mM DTT and 0.2 mM sodium orthovanadate for 30 minutes at 30° C. These reaction mixtures were then stopped using 100 mM EDTA, 6 mM adenosine, transferred to strepavidin-coated microtiter plates and allowed to bind for 30 minutes at 20° C. Unincorporated reaction products were washed from the plate using PBS/0.1% Tween 20 then plate incubation performed with anti-phosphotyrosine antibody (Sigma mouse monoclonal clone PT66) in 2% BSA/PBS/Tween for 1 hour at 20° C. […] HRP detection was then performed with tetramethylbenzidine (TMB) substrate and measuring absorbance at 450 nm using a spectrophotometer (Dynex MRX). […]

protein tyrosine kinase v-Abl, sequence (P00521 whole entry): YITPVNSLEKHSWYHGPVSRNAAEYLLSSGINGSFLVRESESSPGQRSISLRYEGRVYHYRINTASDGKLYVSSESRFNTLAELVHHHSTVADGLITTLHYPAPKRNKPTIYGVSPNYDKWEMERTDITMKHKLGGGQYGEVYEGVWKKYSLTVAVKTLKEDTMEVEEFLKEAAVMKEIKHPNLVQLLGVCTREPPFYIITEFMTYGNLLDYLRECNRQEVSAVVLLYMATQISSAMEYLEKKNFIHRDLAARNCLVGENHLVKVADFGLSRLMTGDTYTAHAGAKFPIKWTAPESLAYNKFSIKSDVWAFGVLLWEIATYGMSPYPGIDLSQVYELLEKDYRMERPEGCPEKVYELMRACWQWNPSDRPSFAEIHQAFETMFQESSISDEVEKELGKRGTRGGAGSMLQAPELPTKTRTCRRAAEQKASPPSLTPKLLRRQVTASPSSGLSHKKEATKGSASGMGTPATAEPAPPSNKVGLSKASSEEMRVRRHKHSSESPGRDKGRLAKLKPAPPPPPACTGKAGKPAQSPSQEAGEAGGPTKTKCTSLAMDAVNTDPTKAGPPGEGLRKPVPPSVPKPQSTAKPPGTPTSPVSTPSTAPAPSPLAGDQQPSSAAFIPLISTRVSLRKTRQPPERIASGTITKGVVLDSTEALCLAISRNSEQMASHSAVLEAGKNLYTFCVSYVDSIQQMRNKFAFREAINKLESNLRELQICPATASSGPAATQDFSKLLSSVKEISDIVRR

## Serine-tyrosine-phenylalanine-histamine-glutamine
  substrate deconvoluted from library sub-set: active site substrate recognition substrate
